Data: the NIST ThermoML archive (doi:10.1016/j.fluid.2016.06.028)
Numbers after ± are expanded uncertainties.

Conditions: for surface tension liquid-gas: Ring tensiometer; for viscosity / electrical conductivity / mass density: 101.33 kPa, Liquid; for viscosity: Concentric cylinders viscometry; for electrical conductivity: Direct current cell with electrodes; for mass density: Vibrating tube method

COCC[N+]1(C)CCCC1.O=S(=O)([N-]S(=O)(=O)C(F)(F)F)C(F)(F)F
surface tension liquid-gas (298.15 K): 49.22 ± 0.87 mN/m | viscosity (298.15 K): 52.19 ± 5.2 mPa·s | electrical conductivity (298.15 K): 0.345 ± 0.04 S/m | mass density (298.15 K): 1453 ± 1.9 kg/m3 | surface tension liquid-gas (303.15 K): 48.62 ± 0.86 mN/m | viscosity (303.15 K): 46.49 ± 4.7 mPa·s | electrical conductivity (303.15 K): 0.402 ± 0.04 S/m | mass density (303.15 K): 1448.7 ± 1.9 kg/m3 | surface tension liquid-gas (313.15 K): 47.34 ± 0.84 mN/m | viscosity (313.15 K): 34.49 ± 3.5 mPa·s | electrical conductivity (313.15 K): 0.48 ± 0.04 S/m | mass density (313.15 K): 1439.3 ± 1.9 kg/m3 | surface tension liquid-gas (323.15 K): 46.18 ± 0.83 mN/m | viscosity (323.15 K): 25.79 ± 2.6 mPa·s | electrical conductivity (323.15 K): 0.534 ± 0.04 S/m | mass density (323.15 K): 1429.9 ± 1.9 kg/m3 | surface tension liquid-gas (333.15 K): 45 ± 0.81 mN/m | viscosity (333.15 K): 20.1 ± 2 mPa·s | electrical conductivity (333.15 K): 0.59 ± 0.04 S/m | mass density (333.15 K): 1420.7 ± 1.8 kg/m3 | surface tension liquid-gas (343.15 K): 44.26 ± 0.81 mN/m | viscosity (343.15 K): 16.8 ± 1.7 mPa·s | electrical conductivity (343.15 K): 0.648 ± 0.04 S/m | mass density (343.15 K): 1411.2 ± 1.8 kg/m3 | surface tension liquid-gas (353.15 K): 42.28 ± 0.78 mN/m | viscosity (353.15 K): 13.5 ± 1.4 mPa·s | electrical conductivity (353.15 K): 0.699 ± 0.04 S/m | mass density (353.15 K): 1401.9 ± 1.8 kg/m3

COCC[N+]1(C)CCOCC1.O=S(=O)([N-]S(=O)(=O)C(F)(F)F)C(F)(F)F
surface tension liquid-gas (298.15 K): 50.14 ± 0.88 mN/m | viscosity (298.15 K): 257.6 ± 26 mPa·s | electrical conductivity (298.15 K): 0.065 ± 0.04 S/m | mass density (298.15 K): 1500.2 ± 2.1 kg/m3 | surface tension liquid-gas (303.15 K): 49.3 ± 0.87 mN/m | viscosity (303.15 K): 210.9 ± 22 mPa·s | electrical conductivity (303.15 K): 0.079 ± 0.04 S/m | mass density (303.15 K): 1495.7 ± 2 kg/m3 | surface tension liquid-gas (313.15 K): 48.41 ± 0.86 mN/m | viscosity (313.15 K): 127.2 ± 13 mPa·s | electrical conductivity (313.15 K): 0.108 ± 0.04 S/m | mass density (313.15 K): 1486.4 ± 2 kg/m3 | surface tension liquid-gas (323.15 K): 47.64 ± 0.85 mN/m | viscosity (323.15 K): 77.98 ± 7.9 mPa·s | electrical conductivity (323.15 K): 0.136 ± 0.04 S/m | mass density (323.15 K): 1477.2 ± 2 kg/m3 | surface tension liquid-gas (333.15 K): 46.3 ± 0.83 mN/m | viscosity (333.15 K): 51.89 ± 5.2 mPa·s | electrical conductivity (333.15 K): 0.17 ± 0.04 S/m | mass density (333.15 K): 1468 ± 2 kg/m3 | surface tension liquid-gas (343.15 K): 45.36 ± 0.82 mN/m | viscosity (343.15 K): 37.49 ± 3.8 mPa·s | electrical conductivity (343.15 K): 0.257 ± 0.04 S/m | mass density (343.15 K): 1458.9 ± 1.9 kg/m3 | surface tension liquid-gas (353.15 K): 44.74 ± 0.81 mN/m | viscosity (353.15 K): 27.59 ± 2.8 mPa·s | electrical conductivity (353.15 K): 0.334 ± 0.04 S/m | mass density (353.15 K): 1449.8 ± 1.9 kg/m3

CCC[N+](C)(C)CC.O=S(=O)([N-]S(=O)(=O)C(F)(F)F)C(F)(F)F
surface tension liquid-gas (298.15 K): 46.56 ± 0.83 mN/m | viscosity (298.15 K): 58.79 ± 5.9 mPa·s | electrical conductivity (298.15 K): 0.248 ± 0.04 S/m | mass density (298.15 K): 1403 ± 1.8 kg/m3 | surface tension liquid-gas (303.15 K): 45.84 ± 0.83 mN/m | viscosity (303.15 K): 53.39 ± 5.4 mPa·s | electrical conductivity (303.15 K): 0.281 ± 0.04 S/m | mass density (303.15 K): 1398.8 ± 1.8 kg/m3 | surface tension liquid-gas (313.15 K): 44.92 ± 0.81 mN/m | viscosity (313.15 K): 38.39 ± 3.9 mPa·s | electrical conductivity (313.15 K): 0.325 ± 0.04 S/m | mass density (313.15 K): 1389.8 ± 1.8 kg/m3 | surface tension liquid-gas (323.15 K): 43.95 ± 0.8 mN/m | viscosity (323.15 K): 28.49 ± 2.9 mPa·s | electrical conductivity (323.15 K): 0.358 ± 0.04 S/m | mass density (323.15 K): 1381 ± 1.7 kg/m3 | surface tension liquid-gas (333.15 K): 43.34 ± 0.79 mN/m | viscosity (333.15 K): 21.3 ± 2.1 mPa·s | electrical conductivity (333.15 K): 0.414 ± 0.04 S/m | mass density (333.15 K): 1372.1 ± 1.7 kg/m3 | surface tension liquid-gas (343.15 K): 42.03 ± 0.78 mN/m | viscosity (343.15 K): 17.1 ± 1.7 mPa·s | electrical conductivity (343.15 K): 0.519 ± 0.04 S/m | mass density (343.15 K): 1362.4 ± 1.7 kg/m3 | surface tension liquid-gas (353.15 K): 40.89 ± 0.76 mN/m | viscosity (353.15 K): 14.1 ± 1.4 mPa·s | electrical conductivity (353.15 K): 0.634 ± 0.04 S/m | mass density (353.15 K): 1352.7 ± 1.7 kg/m3

CC[N+](C)(C)CCOC.O=S(=O)([N-]S(=O)(=O)C(F)(F)F)C(F)(F)F
surface tension liquid-gas (298.15 K): 47.56 ± 0.85 mN/m | viscosity (298.15 K): 59.39 ± 6 mPa·s | electrical conductivity (298.15 K): 0.288 ± 0.04 S/m | mass density (298.15 K): 1424.9 ± 1.8 kg/m3 | surface tension liquid-gas (303.15 K): 47.32 ± 0.84 mN/m | viscosity (303.15 K): 50.39 ± 5.1 mPa·s | electrical conductivity (303.15 K): 0.315 ± 0.04 S/m | mass density (303.15 K): 1420.5 ± 1.8 kg/m3 | surface tension liquid-gas (313.15 K): 45.67 ± 0.82 mN/m | viscosity (313.15 K): 30.59 ± 3.1 mPa·s | electrical conductivity (313.15 K): 0.357 ± 0.04 S/m | mass density (313.15 K): 1411 ± 1.8 kg/m3 | surface tension liquid-gas (323.15 K): 44.86 ± 0.81 mN/m | viscosity (323.15 K): 23.1 ± 2.3 mPa·s | electrical conductivity (323.15 K): 0.395 ± 0.04 S/m | mass density (323.15 K): 1401.5 ± 1.8 kg/m3 | surface tension liquid-gas (333.15 K): 43.46 ± 0.8 mN/m | viscosity (333.15 K): 18.3 ± 1.8 mPa·s | electrical conductivity (333.15 K): 0.465 ± 0.04 S/m | mass density (333.15 K): 1390.3 ± 1.8 kg/m3 | surface tension liquid-gas (343.15 K): 42.23 ± 0.78 mN/m | viscosity (343.15 K): 15 ± 1.5 mPa·s | electrical conductivity (343.15 K): 0.551 ± 0.04 S/m | mass density (343.15 K): 1379.2 ± 1.7 kg/m3 | surface tension liquid-gas (353.15 K): 40.44 ± 0.76 mN/m | viscosity (353.15 K): 13.2 ± 1.3 mPa·s | electrical conductivity (353.15 K): 0.633 ± 0.04 S/m | mass density (353.15 K): 1368.9 ± 1.7 kg/m3

COCC[N+]1(C)CCCCC1.O=S(=O)([N-]S(=O)(=O)C(F)(F)F)C(F)(F)F
surface tension liquid-gas (298.15 K): 44.65 ± 0.81 mN/m | viscosity (298.15 K): 69.89 ± 7 mPa·s | electrical conductivity (298.15 K): 0.209 ± 0.04 S/m | mass density (298.15 K): 1433.2 ± 1.9 kg/m3 | surface tension liquid-gas (303.15 K): 44.06 ± 0.8 mN/m | viscosity (303.15 K): 55.79 ± 5.6 mPa·s | electrical conductivity (303.15 K): 0.241 ± 0.04 S/m | mass density (303.15 K): 1429 ± 1.9 kg/m3 | surface tension liquid-gas (313.15 K): 43.2 ± 0.79 mN/m | viscosity (313.15 K): 35.69 ± 3.6 mPa·s | electrical conductivity (313.15 K): 0.287 ± 0.04 S/m | mass density (313.15 K): 1419.8 ± 1.8 kg/m3 | surface tension liquid-gas (323.15 K): 42.01 ± 0.78 mN/m | viscosity (323.15 K): 26 ± 2.6 mPa·s | electrical conductivity (323.15 K): 0.325 ± 0.04 S/m | mass density (323.15 K): 1410.7 ± 1.8 kg/m3 | surface tension liquid-gas (333.15 K): 40.98 ± 0.76 mN/m | viscosity (333.15 K): 19.8 ± 2 mPa·s | electrical conductivity (333.15 K): 0.396 ± 0.04 S/m | mass density (333.15 K): 1401.7 ± 1.8 kg/m3 | surface tension liquid-gas (343.15 K): 40.19 ± 0.75 mN/m | viscosity (343.15 K): 15.6 ± 1.6 mPa·s | electrical conductivity (343.15 K): 0.489 ± 0.04 S/m | mass density (343.15 K): 1392.5 ± 1.8 kg/m3 | surface tension liquid-gas (353.15 K): 38.83 ± 0.74 mN/m | viscosity (353.15 K): 13.8 ± 1.4 mPa·s | electrical conductivity (353.15 K): 0.599 ± 0.04 S/m | mass density (353.15 K): 1383.3 ± 1.7 kg/m3
